Publication PMC3006429 (PLoS ONE, 2010)
Where “and” joins values, the source holds several entries; their conditions need not be identical. Identical values can stand only once. Like-named read-outs stand apart in the source and are kept apart here.

What was measured:
WT 3Dpol = WT 3Dpol (Foot-and-mouth disease virus, UniProt P03311); experiment: biochemical; conditions: IC50 (filter binding assay)
[1] = molecular target: Klenow Fragment (KF) of E. coli DNA polymerase I (Escherichia coli, UniProt P00582); format: biochemical
Klenow Fragment (KF) of E. coli DNA polymerase I, sequence (P00582 324-928): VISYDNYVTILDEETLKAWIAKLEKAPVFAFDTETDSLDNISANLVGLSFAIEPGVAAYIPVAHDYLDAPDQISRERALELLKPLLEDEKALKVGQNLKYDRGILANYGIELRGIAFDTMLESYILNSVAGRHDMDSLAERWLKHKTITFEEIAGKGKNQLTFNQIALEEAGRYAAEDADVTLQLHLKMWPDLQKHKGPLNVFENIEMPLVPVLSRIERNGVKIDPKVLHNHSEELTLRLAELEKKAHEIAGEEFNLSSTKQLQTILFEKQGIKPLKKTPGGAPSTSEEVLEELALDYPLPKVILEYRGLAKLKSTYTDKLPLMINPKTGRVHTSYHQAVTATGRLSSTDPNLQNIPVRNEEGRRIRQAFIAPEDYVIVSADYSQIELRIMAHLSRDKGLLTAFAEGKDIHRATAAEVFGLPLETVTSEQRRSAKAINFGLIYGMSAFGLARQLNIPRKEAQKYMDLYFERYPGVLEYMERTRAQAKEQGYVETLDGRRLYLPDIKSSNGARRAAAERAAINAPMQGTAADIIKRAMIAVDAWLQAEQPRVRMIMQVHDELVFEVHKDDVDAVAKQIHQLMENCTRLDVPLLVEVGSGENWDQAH

FMDV 3Dpol [2] = molecular target: T1, FMDV 3Dpol (Foot-and-mouth disease virus, UniProt P03311); experiment: biochemical; conditions: IC50 of 3Dpol inhibition (gel-based)
T1 sequence (P03311 1858-2327 limits assumed): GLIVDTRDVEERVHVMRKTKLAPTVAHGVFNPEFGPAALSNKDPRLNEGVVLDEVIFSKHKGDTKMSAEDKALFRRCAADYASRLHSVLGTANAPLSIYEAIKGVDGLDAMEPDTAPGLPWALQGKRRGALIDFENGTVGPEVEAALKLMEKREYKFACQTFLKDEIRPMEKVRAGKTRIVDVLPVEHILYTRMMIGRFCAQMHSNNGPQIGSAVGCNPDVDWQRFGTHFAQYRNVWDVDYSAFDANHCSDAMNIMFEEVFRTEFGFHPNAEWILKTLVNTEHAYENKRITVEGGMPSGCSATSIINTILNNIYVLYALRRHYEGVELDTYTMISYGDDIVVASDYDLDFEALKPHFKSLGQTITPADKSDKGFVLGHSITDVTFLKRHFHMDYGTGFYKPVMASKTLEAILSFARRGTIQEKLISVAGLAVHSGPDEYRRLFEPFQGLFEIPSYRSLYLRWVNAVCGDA

[3] = molecular target: HIV-1 reverse transcriptase (HIV-1 RT) (Human immunodeficiency virus type 1 group M subtype B, UniProt P03366); format: biochemical
in vitro = conditions: hamster
FMDV A24 Cruzeiro = experiment: microbe, parasite or virus in culture; format: cell-based, Foot-and-Mouth Disease Virus
FMDV = conditions: cited from earlier work; for EC50: read-out: EC50 (FMDV replication in cell cultures); for EC90: read-out: EC90 (FMDV replication in cell cultures)
FMDV 3Dpol [4] = molecular target: T1, FMDV 3Dpol; experiment: biochemical
FMDV 3Dpol [5] = molecular target: T1, FMDV 3Dpol; experiment: biochemical; format: biochemical

WT 3Dpol, sequence (P03311 1858-2327 limits assumed): as above

Structure (SMILES)	inhibition of KF polymerase activity [1]	IC50 (FMDV 3Dpol [2])	inhibition of HIV-1 RT polymerase activity [3]	CC50 (in vitro) [µM]	also measured
O=[N+]([O-])c1ccc(Sc2ccc(Cl)cc2Cl)c2nonc12 [1A8]	No significant inhibition	17.8 µM	No significant inhibition		IC50 (WT 3Dpol): 17.4 µM and 17.8 µM
O=C1C(Cl)=C(Sc2ccccc2Br)C(=O)c2ccccc21 [8C5]	No significant inhibition	5.4 µM	No significant inhibition	55	IC50 (WT 3Dpol): 5.4 µM; inhibition of viral replication (FMDV A24 Cruzeiro): inhibition of viral replication
N#CC(C(=O)Nc1cccc(C(F)(F)F)c1)C(=S)Nc1ccccc1Cl (centres unmarked) [3A11]		~2 µM and 2 µM		70	
NC(=O)c1ncn([C@@H]2O[C@H](CO)[C@@H](O)[C@H]2O)n1 [ribavirin]					EC50 (FMDV): 970 µM; EC90 (FMDV): 1700 µM
Cc1cn([C@@H]2O[C@H](COP(=O)(O)OP(=O)(O)OP(=O)(O)O)C[C@H]2O)c(=O)[nH]c1=O [DMUT, 3′-deoxy-5-methyl uridine triphosphate]					IC50 (FMDV 3Dpol [4]): 0.68 µM
O=S(=O)(NNc1ncnc2sccc12)c1ccc(Cl)cc1 [5D9]	No significant inhibition	12 µM	No significant inhibition	> 100	antiviral potency relative to ribavirin (FMDV A24 Cruzeiro): ~80 fold; inhibition of viral replication (FMDV A24 Cruzeiro): inhibition of viral replication; EC50 (FMDV A24 Cruzeiro; Foot-and-mouth disease virus, BHK-21, 24 h, read-out: EC50 (virus production in FMDV-infected cells)): 12 µM; EC90 (FMDV A24 Cruzeiro; Foot-and-mouth disease virus, BHK-21, 24 h, read-out: EC90 (virus production in FMDV-infected cells)): 20 µM; inhibition at 20 µM (FMDV A24 Cruzeiro; Foot-and-mouth disease virus, BHK-21, read-out: inhibition of virus replication): 90%; Ki (FMDV 3Dpol [5]): 9.4 ± 2.5 µM; kinetic mechanism of inhibition (FMDV 3Dpol [5]): non-competitive
C[C@@]1(O)[C@H](O)[C@@H](CO)O[C@H]1n1ccc(N)nc1=O [2′-C-methylcytidine]					EC50 (FMDV): 10 µM; EC90 (FMDV): 15 µM
O=S1(=O)C=C(CSc2cccs2)c2cc(Cl)ccc21 [7F8]	No significant inhibition	10 µM	No significant inhibition	> 100	kinetic mechanism of inhibition (FMDV 3Dpol [5]): non-competitive
O=C(Sc1cccs1)c1cncc(C#Cc2ccccc2)c1 [4H6]	No significant inhibition	8 µM	No significant inhibition	> 100	
CCOC(=O)/C(=N\Nc1ccc(Br)cc1)C(=O)CSC#N [9A3]	No significant inhibition	10 µM	No significant inhibition	> 100	
